Source: the supplement of paper PMC10307832

Assays:
Experiment in all cases: relative viability (nuclei count vs DMSO), 5 days (fraction); higher = more cells survive
[1] = compound: Cc1ccc(F)c(NC(=O)Nc2ccc(-c3cccc4[nH]nc(N)c34)cc2)c1 [Linifanib] + CC(=O)c1c(C)c2cnc(Nc3ccc(N4CCNCC4)cn3)nc2n(C2CCCC2)c1=O [Palbociclib] (partner 0.5 µM)
Outline: (§1)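 Dosing by pin tool came one day after lung cancer cell lines were seeded in 1536-well plates, using either one drug or a fixed anchor-drug dose plus five library-drug doses (not always all listed) in √10 steps. After 5 days, nuclei were counted on 4× images. Relative viability is treated-well nuclei count divided by vehicle-well nuclei count, and values are medians of duplicate plates.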

[2] = compound: Cc1ccc(F)c(NC(=O)Nc2ccc(-c3cccc4[nH]nc(N)c34)cc2)c1 [Linifanib] + Cc1nc(NC(=O)N2CCC[C@H]2C(N)=O)sc1-c1ccnc(C(C)(C)C(F)(F)F)c1 [Alpelisib] (partner 2 µM)
Outline: as §1

[3] = compound: Cc1ccc(F)c(NC(=O)Nc2ccc(-c3cccc4[nH]nc(N)c34)cc2)c1 [Linifanib] + CS(=O)(=O)N1CCN(Cc2cc3nc(-c4cccc5[nH]ncc45)nc(N4CCOCC4)c3s2)CC1 [Pictilisib] (partner 1 µM)
Outline: as §1

[4] = compound: Cc1ccc(F)c(NC(=O)Nc2ccc(-c3cccc4[nH]nc(N)c34)cc2)c1 [Linifanib] + N=C(N)NC(=N)NCCc1ccccc1 [Phenformin] (partner 250 µM)
Outline: as §1

[5] = compound: Cc1ccc(F)c(NC(=O)Nc2ccc(-c3cccc4[nH]nc(N)c34)cc2)c1 [Linifanib] + CS(=O)(=O)CCNCc1ccc(-c2ccc3ncnc(Nc4ccc(OCc5cccc(F)c5)c(Cl)c4)c3c2)o1 [Lapatinib] (partner 2 µM)
Outline: as §1

[6] = compound: Cc1ccc(F)c(NC(=O)Nc2ccc(-c3cccc4[nH]nc(N)c34)cc2)c1 [Linifanib] + O=C(CCCCCCC(=O)Nc1ccccc1)NO [Vorinostat] (partner 1 µM)
Outline: as §1

Row | Cell Line | relative viability ([1]; first compound 0.03162 µM) | relative viability ([1]; first compound 0.1 µM) | relative viability ([1]; first compound 0.3162 µM) | relative viability ([2]; first compound 0.03162 µM) | relative viability ([2]; first compound 0.1 µM) | relative viability ([2]; first compound 0.3162 µM) | relative viability ([3]; first compound 0.03162 µM) | relative viability ([3]; first compound 0.1 µM) | relative viability ([3]; first compound 0.3162 µM) | relative viability ([4]; first compound 0.03162 µM) | relative viability ([4]; first compound 0.1 µM) | relative viability ([4]; first compound 0.3162 µM) | relative viability ([5]; first compound 0.03162 µM) | relative viability ([5]; first compound 0.1 µM) | relative viability ([5]; first compound 0.3162 µM) | relative viability ([6]; first compound 0.03162 µM) | relative viability ([6]; first compound 0.1 µM) | relative viability ([6]; first compound 0.3162 µM)
1 | NCI-H2170 | 0.385 | 0.421 | 0.402 | 0.787 | 0.875 | 0.776 | 0.297 | 0.332 | 0.304 | 0.426 | 0.411 | 0.378 | 0.255 | 0.277 | 0.279 | 0.806 | 0.814 | 0.823
2 | NCI-H23 | 0.486 | 0.57 | 0.487 | 0.563 | 0.807 | 0.76 | 0.542 | 0.524 | 0.523 | 0.773 | 0.838 | 0.749 | 0.991 | 1.14 | 1.01 | 0.771 | 0.688 | 0.566
3 | SK-LU-1 | 0.359 | 0.449 | 0.366 | 0.926 | 0.918 | 1.05 | 0.529 | 0.602 | 0.542 | 0.528 | 0.622 | 0.58 | 0.84 | 1.12 | 0.738 | 0.74 | 0.749 | 0.828
4 | NCI-H1437 | 0.344 | 0.331 | 0.311 | 1.02 | 0.999 | 0.868 | 0.529 | 0.495 | 0.471 | 0.32 | 0.296 | 0.276 | 0.957 | 0.801 | 0.77 | 0.851 | 0.918 | 0.819
5 | NCI-H3122 | 0.19 | 0.196 | 0.179 | 0.761 | 0.783 | 0.786 | 0.598 | 0.648 | 0.577 | 0.381 | 0.399 | 0.362 | 1.11 | 1.11 | 0.922 | 1.12 | 1.09 | 0.927
6 | NCI-H520 | 0.22 | 0.216 | 0.238 | 0.789 | 0.801 | 0.794 | 0.29 | 0.304 | 0.315 | 0.493 | 0.666 | 0.552 | 1 | 1.03 | 0.895 | 0.669 | 0.769 | 0.643
7 | NCI-H1734 | 0.322 | 0.357 | 0.394 | 0.748 | 0.773 | 0.679 | 0.501 | 0.526 | 0.373 | 0.384 | 0.454 | 0.366 | 1.04 | 1.19 | 1.01 | 0.815 | 0.849 | 0.83
8 | NCI-H1975 | 0.6 | 0.783 | 0.551 | 0.631 | 0.715 | 0.65 | 0.298 | 0.3 | 0.367 | 0.418 | 0.433 | 0.406 | 0.898 | 1.11 | 0.874 | 0.649 | 0.735 | 0.697
9 | LU99A | 0.457 | 0.464 | 0.408 | 0.574 | 0.618 | 0.539 | 0.317 | 0.349 | 0.325 | 0.878 | 0.892 | 0.793 | 1.07 | 1.06 | 1.05 | 0.497 | 0.43 | 0.505
10 | NCI-H1793 | 0.31 | 0.349 | 0.292 | 0.664 | 0.763 | 0.681 | 0.336 | 0.285 | 0.332 | 0.278 | 0.379 | 0.321 | 0.7 | 0.765 | 0.765 | 0.777 | 0.796 | 0.745
11 | NCI-H1355 | 0.398 | 0.411 | 0.389 | 0.81 | 0.823 | 0.794 | 0.463 | 0.401 | 0.433 | 0.449 | 0.496 | 0.425 | 1.04 | 0.934 | 1.01 | 0.647 | 0.68 | 0.682
12 | NCI-H2023 | 0.357 | 0.415 | 0.345 | 0.585 | 0.598 | 0.564 | 0.221 | 0.297 | 0.263 | 0.398 | 0.479 | 0.392 | 0.801 | 1.06 | 0.733 | 0.655 | 0.807 | 0.612
13 | LOU-NH91 | 0.551 | 0.517 | 0.51 | 0.686 | 0.771 | 0.704 | 0.498 | 0.523 | 0.557 | 0.734 | 0.806 | 0.732 | 0.772 | 0.828 | 0.747 | 0.969 | 0.975 | 0.943
14 | NCI-H838 | 0.22 | 0.223 | 0.23 | 0.903 | 1.07 | 0.932 | 0.464 | 0.466 | 0.458 | 0.79 | 0.642 | 0.542 | 1.01 | 1.11 | 0.933 | 0.724 | 0.711 | 0.686
15 | A-427 | 0.54 | 0.548 | 0.507 | 1.13 | 1.16 | 1.09 | 0.796 | 0.724 | 0.711 | 0.346 | 0.428 | 0.294 | 1.06 | 1.01 | 0.955 | 0.884 | 0.86 | 0.918
16 | NCI-H650 | 0.37 | 0.308 | 0.376 | 1.09 | 1.04 | 1.14 | 0.777 | 0.905 | 0.871 | 0.45 | 0.449 | 0.439 | 1.16 | 0.941 | 0.766 | 0.513 | 0.409 | 0.358
17 | NCI-H2347 | 0.462 | 0.441 | 0.404 | 1.07 | 1.05 | 1.08 | 0.863 | 0.987 | 0.817 | 0.517 | 0.864 | 0.298 | 0.955 | 0.927 | 0.909 | 0.73 | 0.773 | 0.665
